# Structures can show the parent of a compound that is named as a salt.
# Molecular target: ROCK2 (Homo sapiens, UniProt O75116)
# Test: ROCK2 kinase inhibition assay (LABCHIP 3000 Reader, FITC peptide substrate);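 also: rho kinase reaction read by separating phosphorylated from unphosphorylated peptide on chip, with inhibition of kinase activity computed per concentration across a dose-response series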
# Chain of ROCK2 (O75116 whole entry, species assumed): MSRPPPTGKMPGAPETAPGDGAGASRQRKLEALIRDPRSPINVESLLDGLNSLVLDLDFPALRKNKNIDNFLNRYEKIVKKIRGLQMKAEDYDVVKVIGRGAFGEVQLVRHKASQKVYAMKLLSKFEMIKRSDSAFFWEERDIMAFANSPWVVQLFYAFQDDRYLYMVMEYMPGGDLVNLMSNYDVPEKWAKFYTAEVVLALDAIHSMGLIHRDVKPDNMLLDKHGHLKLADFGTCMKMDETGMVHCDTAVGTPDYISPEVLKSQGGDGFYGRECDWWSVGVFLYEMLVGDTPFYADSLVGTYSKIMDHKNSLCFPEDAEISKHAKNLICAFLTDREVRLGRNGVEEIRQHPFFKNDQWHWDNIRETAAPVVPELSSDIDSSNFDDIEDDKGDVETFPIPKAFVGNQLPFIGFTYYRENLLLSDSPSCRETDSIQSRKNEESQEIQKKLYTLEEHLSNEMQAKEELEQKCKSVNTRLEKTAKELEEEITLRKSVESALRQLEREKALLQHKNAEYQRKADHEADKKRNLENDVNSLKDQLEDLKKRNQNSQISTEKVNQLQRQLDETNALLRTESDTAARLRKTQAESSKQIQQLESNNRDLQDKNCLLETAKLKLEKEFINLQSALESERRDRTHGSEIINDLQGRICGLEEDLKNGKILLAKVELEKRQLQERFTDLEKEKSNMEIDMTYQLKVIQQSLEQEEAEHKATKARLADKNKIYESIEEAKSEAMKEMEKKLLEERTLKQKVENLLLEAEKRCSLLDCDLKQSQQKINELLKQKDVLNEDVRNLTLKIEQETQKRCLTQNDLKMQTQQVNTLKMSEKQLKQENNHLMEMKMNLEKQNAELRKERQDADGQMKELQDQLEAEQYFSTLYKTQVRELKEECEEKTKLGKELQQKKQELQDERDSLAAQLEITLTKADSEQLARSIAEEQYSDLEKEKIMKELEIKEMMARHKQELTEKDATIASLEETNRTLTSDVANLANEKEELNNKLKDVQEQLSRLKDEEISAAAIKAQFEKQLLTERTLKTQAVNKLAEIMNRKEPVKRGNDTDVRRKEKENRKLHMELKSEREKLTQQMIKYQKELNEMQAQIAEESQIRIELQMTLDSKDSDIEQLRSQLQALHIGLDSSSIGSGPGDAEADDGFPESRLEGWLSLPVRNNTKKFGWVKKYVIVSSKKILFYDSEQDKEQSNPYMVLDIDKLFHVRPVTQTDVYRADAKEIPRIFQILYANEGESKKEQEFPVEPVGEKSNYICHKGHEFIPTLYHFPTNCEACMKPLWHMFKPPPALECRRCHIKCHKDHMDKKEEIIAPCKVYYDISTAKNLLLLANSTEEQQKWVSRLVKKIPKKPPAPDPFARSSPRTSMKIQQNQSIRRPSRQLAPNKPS
row,IC50 [nM],SMILES
1,50 to 250,"NC(=O)c1cccnc1O[C@H]1CC2(C[C@H](NC(=O)c3ncoc3-c3ccccc3)C2)C1 (stereo partly drawn) [Example 165, N-((aR)-6-((3-carbamoylpyridin-2-yl)oxy)spiro[3.3]heptan-2-yl)-5-phenyloxazole-4-carboxamide]"
2,5 to 50,"CC(C)(O)COc1ccn2c(C(=O)NC3CC4(C3)CC(Oc3ncccc3C(N)=O)C4)cnc2c1 (centres unmarked) [Example 166, N-((αR)-6-((3-carbamoylpyridin-2-yl)oxy)spiro[3.3]heptan-2-yl)-7-(2-hydroxy-2-methylpropoxy) imidazo[1,2-a]pyridine-3-carboxamide]"
3,< 5,"COc1ccc(C(N)=O)c(O[C@H]2CC3(C[C@H](NC(=O)c4cnn5c(C6CC6)c(OCC(C)(C)O)ccc45)C3)C2)n1 (stereo partly drawn) [Example 167, N-((aR)-6-((3-carbamoyl-6-methoxypyridin-2-yl)oxy)spiro[3.3]heptan-2-yl)-7-cyclopropyl-6-(2-hydroxy-2-methylpropoxy)pyrazolo [1,5-a]pyridine-3-carboxamide]"
4,< 5,"COc1ccc(C(N)=O)c(O[C@H]2CC3(C[C@H](NC(=O)c4cnn5c(CCC(F)(F)F)c(OCC(C)(C)O)ccc45)C3)C2)n1 (stereo partly drawn) [Example 168, N-((aR)-6-((3-carbamoyl-6-methoxypyridin-2-yl)oxy)spiro[3.3]heptan-2-yl)-6-(2-hydroxy-2-methylpropoxy)-7-(3,3,3-trifluoropropyl)pyrazolo [1,5-a]pyridine-3-carboxamide]"
5,5 to 50,"COc1ccc(C(N)=O)c(O[C@H]2CC3(C[C@H](NC(=O)c4nn(CC(C)(C)O)c5ccc(F)cc45)C3)C2)n1 (stereo partly drawn) [Example 169, N-((aR)-6-((3-carbamoyl-6-methoxypyridin-2-yl)oxy)spiro[3.3]heptan-2-yl)-5-fluoro-1-(2-hydroxy-2-methylpropyl)-1H-indazole-3-carboxamide]"
6,50 to 250,"NC(=O)c1cccnc1O[C@H]1CC2(C[C@H](NC(=O)c3cnc4c(C5CC5)cccn34)C2)C1 (stereo partly drawn) [Example 170, N-((aR)-6-((3-carbamoylpyridin-2-yl)oxy)spiro[3.3]heptan-2-yl)-8-cyclopropylimidazo[1,2-a]pyridine-3-carboxamide, Trifluoroacetate]"
7,5 to 50,"NC(=O)c1cccnc1O[C@H]1CC2(C[C@H](NC(=O)c3nn(C(F)F)c4cc(OCc5ccccc5)ccc34)C2)C1 (stereo partly drawn) [Example 171, 6-(benzyloxy)-N-((aR)-6-((3-carbamoylpyridin-2-yl)oxy)spiro[3.3]heptan-2-yl)-1-(difluoromethyl)-1H-indazole-3-carboxamide, trifluoroacetate]"
8,5 to 50,"NC(=O)c1cccnc1O[C@H]1CC2(C[C@H](NC(=O)c3nn(C(F)F)c4cc(Br)ccc34)C2)C1 (stereo partly drawn) [Example 172, 6-bromo-N-((aR)-6-((3-carbamoylpyridin-2-yl)oxy)spiro[3.3]heptan-2-yl)-1-(difluoromethyl)-1H-indazole-3-carboxamide, trifluoroacetate]"
9,5 to 50,"Cn1nc(C(=O)N[C@H]2CC3(C2)C[C@H](Oc2ncccc2C(N)=O)C3)c2ccc(F)cc21 (stereo partly drawn) [Example 173, N-((aR)-6-((3-carbamoylpyridin-2-yl)oxy)spiro[3.3]heptan-2-yl)-6-fluoro-1-methyl-1H-indazole-3-carboxamide, trifluoroacetate]"
10,5 to 50,"[2H]C([2H])([2H])n1nc(C(=O)N[C@H]2CC3(C2)C[C@H](Oc2ncccc2C(N)=O)C3)c2ccc(F)cc21 (stereo partly drawn) [Example 174, 6-fluoro-1-(^2H3)methyl-N-[(aR)-6-[(3-carbamoylpyridin-2-yl)oxy]spiro[3.3]heptan-2-yl]-1H-indazole-3-carboxamide, trifluoroacetate]"
11,< 5,"NC(=O)c1cccnc1O[C@H]1CC2(C[C@H](NC(=O)c3nn(CC(F)F)c4cc(F)ccc34)C2)C1 (stereo partly drawn) [Example 175, N-((aR)-6-((3-carbamoylpyridin-2-yl)oxy)spiro[3.3]heptan-2-yl)-1-(2,2-difluoroethyl)-6-fluoro-1H-indazole-3-carboxamide, trifluoroacetate]"
12,250 to 2500,"[2H]C([2H])([2H])n1nc2cc(F)ccc2c1C(=O)N[C@H]1CC2(C1)C[C@H](Oc1ncccc1C(N)=O)C2 (stereo partly drawn) [Example 176, 6-fluoro-2-(^2H3)methyl-N-[(aR)-6-[(3-carbamoylpyridin-2-yl)oxy]spiro[3.3]heptan-2-yl]-2H-indazole-3-carboxamide, trifluoroacetate]"
13,5 to 50,"COc1cccc(-c2ccc3c(C(=O)N[C@H]4CC5(C4)C[C@H](Oc4ncccc4C(N)=O)C5)nn(C(F)F)c3c2)c1 (stereo partly drawn) [Example 177, N-((aR)-6-((3-carbamoylpyridin-2-yl)oxy)spiro[3.3]heptan-2-yl)-1-(difluoromethyl)-6-(3-methoxyphenyl)-1H-indazole-3-carboxamide, trifluoroacetate]"
14,5 to 50,"NC(=O)c1cccnc1OC1CC2(CC(NC(=O)c3nnc4cc(N5CCOCC5)ccn34)C2)C1 [Example 179, N-((aR)-6-((3-carbamoylpyridin-2-yl)oxy)spiro[3.3]heptan-2-yl)-7-morpholino-[1,2,4] triazolo[4,3-a]pyridine-3-carboxamide]"
15,< 5,"[H][C@]1(Oc2ncccc2C(N)=O)C[C@@]2(C[C@H](NC(=O)c3cc(C#N)cc(-c4cnc(C)s4)c3)C2)C1 (stereo partly drawn) [Example 180, 2-(((aR)-6-(3-cyano-5-(2-methylthiazol-5-yl)benzamido)spiro[3.3]heptan-2-yl)oxy)nicotinamide, TFA]"
16,< 5,"[2H]C([2H])([2H])n1cc(-c2cc(C#N)cc(C(=O)N[C@H]3CC4(C3)C[C@H](Oc3ncccc3C(N)=O)C4)c2)cn1 (stereo partly drawn) [Example 181, 2-(((aR)-6-(3-cyano-5-(1-(methyl-d3)-1H-pyrazol-4-yl)benzamido)spiro [3.3]heptan-2-yl)oxy)nicotinamide, trifluoroacetate]"
17,< 5,"Cc1nn(C)cc1-c1cc(C#N)cc(C(=O)N[C@H]2CC3(C2)C[C@H](Oc2ncccc2C(N)=O)C3)c1 (stereo partly drawn) [Example 182, 2-(((aR)-6-(3-cyano-5-(1,3-dimethyl-1H-pyrazol-4-yl)benzamido)spiro [3.3]heptan-2-yl)oxy)nicotinamide, trifluoroacetate]"
18,5 to 50,"N#Cc1cc(C(=O)N[C@H]2CC3(C2)C[C@H](Oc2ncccc2C(N)=O)C3)cc(C2CC2)c1 (stereo partly drawn) [Example 183, 2-(((aR)-6-(3-cyano-5-cyclopropylbenzamido)spiro[3.3]heptan-2-yl)oxy) nicotinamide, trifluoroacetate]"
19,5 to 50,"Cn1cc(-c2cc(C#N)cc(C(=O)N[C@H]3CC4(C3)C[C@H](Oc3ncccc3C(N)=O)C4)c2)c(C(F)(F)F)n1 (stereo partly drawn) [Example 184, 2-(((aR)-6-(3-cyano-5-(1-methyl-3-(trifluoromethyl)-1H-pyrazol-4-yl)benzamido)spiro[3.3]heptan-2-yl)oxy)nicotinamide, trifluoroacetate]"
20,< 5,"Cc1c(-c2cc(C#N)cc(C(=O)N[C@H]3CC4(C3)C[C@H](Oc3ncccc3C(N)=O)C4)c2)cnn1C (stereo partly drawn) [Example 185, 2-(((aR)-6-(3-cyano-5-(1,5-dimethyl-1H-pyrazol-4-yl)benzamido)spiro[3.3]heptan-2-yl)oxy)nicotinamide, trifluoroacetate]"
21,< 5,"Cc1nc2cc(-c3cc(C#N)cc(C(=O)N[C@H]4CC5(C4)C[C@H](Oc4ncccc4C(N)=O)C5)c3)ccc2s1 (stereo partly drawn) [Example 186, 2-(((aR)-6-(3-cyano-5-(2-methylbenzo[d]thiazol-5-yl)benzamido)spiro[3.3]heptan-2-yl)oxy)nicotinamide, trifluoroacetate]"
22,< 5,"CC(C)Cn1cc(-c2cc(C#N)cc(C(=O)N[C@H]3CC4(C3)C[C@H](Oc3ncccc3C(N)=O)C4)c2)cn1 (stereo partly drawn) [Example 187, 2-((aR)-6-(3-cyano-5-(1-isobutyl-1H-pyrazol-4-yl)benzamido)spiro [3.3]heptan-2-yl)oxy)nicotinamide, trifluoroacetate]"
23,250 to 2500,"Cc1nc(-c2ccc(C(F)(F)F)cc2)sc1-c1cc(C#N)cc(C(=O)N[C@H]2CC3(C2)C[C@H](Oc2ncccc2C(N)=O)C3)c1 (stereo partly drawn) [Example 188, 2-((aR)-6-(3-cyano-5-(4-methyl-2-(4-(trifluoromethyl)phenyl)thiazol-5-yl)benzamido)spiro[3.3]heptan-2-yl)oxy)nicotinamide, trifluoroacetate]"
24,< 5,"N#Cc1cc(C(=O)N[C@H]2CC3(C2)C[C@H](Oc2ncccc2C(N)=O)C3)cc(-c2ccc3c(c2)CCC(=O)N3)c1 (stereo partly drawn) [Example 189, 2-((aR)-6-(3-cyano-5-(2-oxo-1,2,3,4-tetrahydroquinolin-6-yl)benzamido)spiro[3.3]heptan-2-yl)oxy)nicotinamide, trifluoroacetate]"
25,5 to 50,"Cc1noc(C)c1-c1cc(C#N)cc(C(=O)N[C@H]2CC3(C2)C[C@H](Oc2ncccc2C(N)=O)C3)c1 (stereo partly drawn) [Example 190, 2-((aR)-6-(3-cyano-5-(3,5-dimethylisoxazol-4-yl)benzamido)spiro[3.3]heptan-2-yl)oxy)nicotinamide, trifluoroacetate]"
26,5 to 50,"N#Cc1cc(C(=O)N[C@H]2CC3(C2)C[C@H](Oc2ncccc2C(N)=O)C3)cc(-c2ccc(C#N)nc2)c1 (stereo partly drawn) [Example 191, 2-(((aR)-6-(3-cyano-5-(6-cyanopyridin-3-yl)benzamido)spiro[3.3]heptan-2-yl)oxy)nicotinamide, trifluoroacetate]"
27,5 to 50,"Cn1ccc(-c2cc(C#N)cc(C(=O)N[C@H]3CC4(C3)C[C@H](Oc3ncccc3C(N)=O)C4)c2)cc1=O (stereo partly drawn) [Example 192, 2-(((aR)-6-(3-cyano-5-(1-methyl-2-oxo-1,2-dihydropyridin-4-yl)benzamido)spiro[3.3]heptan-2-yl)oxy)nicotinamide, trifluoroacetate]"
28,5 to 50,"N#Cc1cc(C(=O)N[C@H]2CC3(C2)C[C@H](Oc2ncccc2C(N)=O)C3)cc(-c2c[nH]nc2C(F)(F)F)c1 (stereo partly drawn) [Example 193, 2-(((aR)-6-(3-cyano-5-(3-(trifluoromethyl)-1H-pyrazol-4-yl)benzamido)spiro[3.3]heptan-2-yl)oxy)nicotinamide, trifluoroacetate]"
29,5 to 50,"Cn1cccc(-c2cc(C#N)cc(C(=O)N[C@H]3CC4(C3)C[C@H](Oc3ncccc3C(N)=O)C4)c2)c1=O (stereo partly drawn) [Example 194, 2-(((aR)-6-(3-cyano-5-(1-methyl-2-oxo-1,2-dihydropyridin-3-yl)benzamido)spiro[3.3]heptan-2-yl)oxy)nicotinamide, trifluoroacetate]"

# Source: patent US10829501B2 (BRISTOL-MYERS SQUIBB COMPANY, priority 2016, dated 2020)
